From patent publication US8735622B2, “Histone demethylase inhibitors and methods for using the same” (The Regents of the University of Colorado, a body corporate, priority 2011, dated 2014)
Several values for one entry are separate records, joined by “and”; a condition that tells them apart may be missing. Equal values may be shown once.

Key:
[1] = target: T1, human GASC1 (GST-GASC1(1-420)) (Homo sapiens, UniProt Q9H3R0); experiment: GASC1 enzyme activity assay (DELFIA); type: biochemical; settings: DELFIA, H3K9me3 peptide substrate
T1 construct: corresponding to amino acid 1-420 was cloned and purified; made in house; host or cells: Escherichia coli BL-21
T1 sequence (Q9H3R0 1-420): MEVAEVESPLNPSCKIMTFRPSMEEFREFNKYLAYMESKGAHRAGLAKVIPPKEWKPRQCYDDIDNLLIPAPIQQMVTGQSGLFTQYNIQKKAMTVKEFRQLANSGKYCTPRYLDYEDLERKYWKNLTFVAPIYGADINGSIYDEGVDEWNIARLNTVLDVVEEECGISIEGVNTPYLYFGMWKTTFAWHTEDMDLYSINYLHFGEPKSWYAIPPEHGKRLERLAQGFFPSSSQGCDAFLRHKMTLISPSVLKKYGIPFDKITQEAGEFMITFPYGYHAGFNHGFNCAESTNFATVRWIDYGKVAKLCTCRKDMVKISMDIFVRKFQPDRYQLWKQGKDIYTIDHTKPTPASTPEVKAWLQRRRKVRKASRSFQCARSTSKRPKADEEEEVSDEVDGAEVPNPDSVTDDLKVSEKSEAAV
Protocol: (§1) In order to evaluate the inhibitory activity of 1 in vitro, a GST-fusion protein of the catalytic N-terminus of human GASC1 (gene amplified in squamous cell carcinoma 1) corresponding to amino acid 1-420 was cloned and purified. […] To evaluate the enzyme specificity of 1, the activity of 1 was examined against several other related enzymes in vitro.
(§2) The enzyme activity assays for GASC1 and JMJD2A were established on the DELFIA platform. DELFIA assays were performed in white, opaque 384-well plates coated with Streptavidin (Perkin Elmer). GST-GASC1(1-420) was diluted to 200 ng/well in 20 mM Tris HCl pH 8.5/2 mM glutathione and added in a volume of 20 μL. Blank wells received Tris/glutathione buffer only. Test compounds were diluted in DMSO and […] was pinned into the wells. Blank and control wells received only compound buffer. The reactions were initiated by the addition of 500 nM biotin-H3(1-20)K9me3 substrate, 10 μM FeSO4, 100 μM alpha-ketoglutarate in a volume of 20 μL, and incubated at room temperature for 60 minutes. The plates were washed 3 times with 100 μL of Wash Buffer (50 mM Tris pH 7.4, 150 mM NaCl, 0.05% Tween 20, 0.2% BSA). […] Time resolved fluorescence was measured after 45 minutes on an Envision Microplate Imager (Perkin Elmer Life Sciences) with 400 μs delay, excitation at 360 nm, and emission at 620 nm.

[2] = target: T2, JMJD2A (Homo sapiens, UniProt O75164); experiment: JMJD2A enzyme activity assay (DELFIA); type: biochemical; settings: DELFIA
T2 construct: Recombinant protein preparation of GASC1(1-420), JMJD2A (1-420) and LSD1 (full-length); made in house; host or cells: Escherichia coli BL-21
T2 sequence (O75164 1-420): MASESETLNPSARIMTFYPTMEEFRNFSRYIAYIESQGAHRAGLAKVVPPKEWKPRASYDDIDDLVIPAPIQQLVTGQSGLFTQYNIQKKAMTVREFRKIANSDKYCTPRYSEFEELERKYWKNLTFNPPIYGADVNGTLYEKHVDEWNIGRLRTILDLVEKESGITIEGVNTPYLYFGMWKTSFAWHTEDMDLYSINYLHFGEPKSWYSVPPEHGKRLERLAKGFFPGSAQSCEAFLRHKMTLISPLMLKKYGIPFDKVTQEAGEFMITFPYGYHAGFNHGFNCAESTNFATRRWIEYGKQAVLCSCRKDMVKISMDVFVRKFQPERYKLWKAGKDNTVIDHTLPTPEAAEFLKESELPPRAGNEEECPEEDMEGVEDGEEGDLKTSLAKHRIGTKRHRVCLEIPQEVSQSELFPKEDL
Protocol: as §1, §2

[3] = target: T3, LSD1 (Homo sapiens, UniProt O60341); experiment: LSD1 formaldehyde dehydrogenase coupled assay; type: biochemical; settings: in vitro
T3 construct: LSD1 (full-length) was expressed as glutathione S-transferase (GST) fusions; made in house; host or cells: Escherichia coli BL-21
Protocol: LSD1 activity was measured in a formaldehyde dehydrogenase coupled assay. 15 μL enzyme mix containing 2.4 μg GST-LSD1 in 20 mM TRIS pH 8.5, 1 mM NAD, 1.5 mU formaldehyde dehydrogenase, 0.5 mM glutathione was added, followed by pin transfer of 100 nL compound. Then reactions were started by addition of 15 μL 75 μM H3(1-20)K4me2 peptide, and NADH fluorescence was measured on a Envision Microplate Imager (Perkin Elmer Life Sciences) with excitation at 345 nm and emission at 460 nm, integration for 400 ms at 10 min and 80 min after peptide addition.

[4] = system: HDACs; experiment: Histone deacetylases (HDACs) enzyme inhibition assay (Fluor de Lys); type: biochemical; settings: in vitro
Protocol: The enzyme activity assay for HDAC was carried out using Fluor de Lys Fluorescent Assay System (BML-AK500, Enzo Life Sciences Inc, NY USA). The assay was performed as the manufactory guide in white 384-well plates. Time resolved fluorescence was measured on a Beckman Coulter DTX 880 plate reader with 250 ms delay, excitation at 360 nm, and emission at 530 nm.

[5] = system: KYSE150 cells; experiment: Cell viability / growth inhibition assay (CellTiter-Glo); type: cell-based, human; settings: 48 hours; compound 1 at up to 100 μM
Text: To examine the cellular activity of the compounds of the invention, oesophageal carcinoma cell line KYSE150 was used in a growth inhibition assay because KYSE150 cells have been reported to contain several copies of the GASC1 gene, and it has been reported that inhibition of GASC1 expression using short hairpin RNA causes a significant reduction of proliferation in KYSE150 cells. […] Without being bound by any theory, it is believed that this low activity in cells was possibly due to the poor cellular uptake of the zwitterion form in which it typically exists under physiological conditions. Therefore, its methyl ester prodrug 2 (FIG. 1a), called methylstat was tested.
To screen and validate the cellular toxicity of compounds, a cell viability assay was carried out using CellTiter-Glo luminescent cell viability assay kit (Promega, Madison USA). KYSE150 cells were seeded on blank-walled 384-well plates with KYSE medium at densities of 1,000 cells/well. The medium volume for each well was 40 μL. Cells were incubated at 37° C. in 5% CO2/95% air for 24 hours. The medium was removed from each well and replaced with 38 μL, of warmed fresh medium and 2 μL, compound solution in 2% DMSO/98% H2O. The compounds were added into medium at different concentrations with the final concentration of DMSO as 0.1%. After incubation at 37° C. with 5% CO2/95% air for another 48 hours, the plates were equilibrated to room temperature for 30 minutes. 40 μL, of CellTiter-Glo reagent (Promega, Madison USA) was added to each well and mixed for 2 minutes on an orbital shaker. The plate was incubated at room temperature for another 10 minutes to stabilize luminescent signal. The luminescence of each sample was measured in a plate-reading illuminometer (Beckman Coulter DTX 880) with parameters of 1-minute lag time and 0.1 second/well read time. The experiments were performed in triplicate and repeated on two separately initiated cultures.

[6] = target: T4, GST-fused GASC1(1-420) (Homo sapiens, UniProt Q9H3R0); experiment: GASC1 enzyme inhibition assay with MS detection; type: biochemical; settings: 1 μM and 5 μM, 2 hours
T4 construct: corresponding to amino acid 1-420 was cloned and purified; made in house; host or cells: Escherichia coli BL-21
T4 sequence (Q9H3R0 1-420): T1 sequence (Q9H3R0 1-420)
Protocol: Synthetic histone peptides H3K9me3 were incubated with purified GST-tagged GASC1(1-420) in demethylation buffer (50 mM Tris pH 8.0, 2 mM ZnCl2, 1 mM alpha-ketoglutarate, 50 μM FeSO4, 1 mM ascorbic acid) at 37° C. In a typical reaction, 2 μg of modified histone peptides were incubated with 20 μg GST-GASC1(1-420) in a total volume of 40 μL, for 2 hours. Reaction mixtures were concentrated and re-dissolved in 50% methanol in water with 0.1% formic acid followed by ESI-TOF analysis using ABI Q-Star Pulsar.

IC50 [1]: ~4.3 µM and 4.3 µM | IC50 [2]: ~3.4 µM and 3.4 µM | inhibition of FAD-dependent HDM LSD1 [3]: did not significantly inhibit | inhibition of histone deacetylases (HDACs) [4]: did not significantly inhibit
Structure (SMILES): O=C(O)/C=C/C(=O)N(O)CCCCNCc1ccc(COC(=O)Nc2cccc3ccccc23)cc1 [Compound 1]
KYSE150 cell growth inhibition [5]: did not show significant growth inhibition | inhibition of GASC1-mediated demethylation of H3K9me3 peptide (mass spectrum) [6]: inhibited GASC1-mediated demethylation of H3K9me3 peptides
